Patent US12201633B2, “Compounds and methods for treatment of visceral pain” (Arena Pharmaceuticals, Inc., priority 2017, dated 2025)

Legend:
[1] = tested on: rats following ligation of spinal nerves; conditions: cited from earlier work
[2] = tested on: acute and chronic pain from chemical, mechanical, and thermal pain stimuli; conditions: animal studies; cited from earlier work
human CB2 receptor [3] = biological target: T1, human CB2 receptor (Homo sapiens, UniProt P34972); assay: PathHunter β-arrestin assay, CB2
T1 sequence (P34972 whole entry): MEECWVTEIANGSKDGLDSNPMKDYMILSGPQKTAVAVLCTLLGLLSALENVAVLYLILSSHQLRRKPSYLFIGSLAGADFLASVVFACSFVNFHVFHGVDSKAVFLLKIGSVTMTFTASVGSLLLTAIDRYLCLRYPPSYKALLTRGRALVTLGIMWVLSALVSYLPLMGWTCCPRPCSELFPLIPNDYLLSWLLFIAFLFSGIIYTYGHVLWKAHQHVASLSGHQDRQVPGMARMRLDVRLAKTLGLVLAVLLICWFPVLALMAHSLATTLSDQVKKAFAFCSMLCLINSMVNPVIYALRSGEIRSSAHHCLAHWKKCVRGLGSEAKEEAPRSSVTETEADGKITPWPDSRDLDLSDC

hCB1 [4] = biological target: T2, hCB1 (Homo sapiens, UniProt P21554); assay: HTRF assay for direct cAMP measurement, CB1; assay type: cell-based; design: 93-0164 (CHO-K1 EA-Arrestin parental line); host or cells: CHO-K1 EA-Arrestin, clone #3
T2 sequence (P21554 whole entry): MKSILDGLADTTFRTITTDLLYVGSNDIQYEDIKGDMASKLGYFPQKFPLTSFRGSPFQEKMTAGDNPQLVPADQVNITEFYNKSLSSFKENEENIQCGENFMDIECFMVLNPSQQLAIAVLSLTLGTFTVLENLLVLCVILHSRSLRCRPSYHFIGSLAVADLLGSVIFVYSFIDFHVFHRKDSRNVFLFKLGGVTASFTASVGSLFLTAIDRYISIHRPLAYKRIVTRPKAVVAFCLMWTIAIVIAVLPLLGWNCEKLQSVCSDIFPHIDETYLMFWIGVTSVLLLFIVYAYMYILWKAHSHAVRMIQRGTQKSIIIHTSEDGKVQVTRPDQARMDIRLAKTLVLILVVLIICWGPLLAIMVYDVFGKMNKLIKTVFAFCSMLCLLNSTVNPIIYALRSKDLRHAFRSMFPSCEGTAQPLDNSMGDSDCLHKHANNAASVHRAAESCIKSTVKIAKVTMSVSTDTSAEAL
Description: Compounds were also screened for agonists and inverse agonists of the CB1 receptor (e.g., human CB1 receptor) using HTRF® assay for direct cAMP measurement (Gabriel et al., ASSAY and Drug Development Technologies, 1:291-303, 2003) in recombinant CHO-K1 cells stably transfected with the CB1 receptor. […] An agonist of the CB1 receptor was detected in the HTRF® assay for direct cAMP measurement as a compound which decreased cAMP concentration. An inverse agonist of the CB1 receptor was detected in the HTRF® assay for direct cAMP measurement as a compound which increased cAMP concentration. The HTRF® assay also was used to determine EC50 values for CB1 receptor agonists and inverse agonists.
Principle of the assay: The HTRF® assay kit was purchased from Cisbio-US, Inc. (Bedford, MA; Catalog #62AM4PEC). The HTRF® assay supported by the kit is a competitive immunoassay between endogenous cAMP produced by the CHO-K1 cells and tracer cAMP labeled with the dye d2. The tracer binding is visualized by a monoclonal anti-cAMP antibody labeled with Cryptate. The specific signal (i.e., fluorescence resonance energy transfer, FRET) is inversely proportional to the concentration of unlabeled cAMP in the standard or sample.
The fluorescence ratio of the samples (test compound or compound buffer) was calculated and used to deduce respective cAMP concentrations by reference to the cAMP standard curve. […]

human CB2 receptor [5] = biological target: T1, human CB2 receptor; assay: HTRF assay for direct cAMP measurement, CB2; assay type: cell-based; design: 93-0164 (CHO-K1 EA-Arrestin parental line); host or cells: CHO-K1 EA-Arrestin, clone #61
hCB1 [6] = biological target: T2, hCB1; assay: PathHunter β-arrestin assay, CB1
hCB1 [7] = biological target: T2, hCB1; assay: Radioligand binding assay, hCB1; conditions: Table C
[8] = tested on: male Sprague-Dawley rats, STZ-induced PDPN; assay: Streptozotocin-induced painful diabetic peripheral neuropathy (PDPN) model; assay type: in vivo, rat; conditions: 10 mg/kg orally in 0.5% methylcellulose; 1, 4 and 6 hours post-dosing; FIG. 9, FIG. 10
Description: Male Sprague-Dawley rats were injected intraperitoneally with 50 mg/kg of streptozotocin (STZ) in sodium citrate buffer. 10% sucrose water was provided ad libitum for the first 48 hours post-STZ followed by regular drinking water. Rats were monitored once weekly for blood glucose levels and body weights. Development of tactile allodynia over time was analyzed using Von Frey filaments and a 50% withdrawal threshold was determined using Dixon's up-down procedure. […] Tactile allodynia was evaluated at 1, 4 and 6 hours post-dosing.

Row | SMILES | EC50 (human CB2 receptor [3]) [nM] | EC50 (human CB2 receptor [5]) [nM] | EC50 (hCB1 [6]) [nM] | also measured
1 | COc1ccc(C(=O)c2c(C)n(CCN3CCOCC3)c3cc(I)ccc23)cc1 [AM630] | – | – | – | Effect on the reversal of hypersensitivity by AM1241 [1]: inhibited
2 | CCCCCCC(C)(C)c1ccc([C@@H]2C[C@H](O)CC[C@H]2CCCO)c(O)c1 [CP55,940] | – | – | – | Efficacy against acute and chronic pain [2]: effective against acute and chronic pain
3 | CC(C)(CO)NC(=O)c1nn(-c2ccc(Cl)cn2)c2c1C[C@H]1C[C@@H]21 [Compound 151, (1aR,5aR)-2-(5-Chloro-pyridin-2-yl)-1a,2,5,5a-tetrahydro-1H-2,3-diaza-cyclopropa[a]pentalene-4-carboxylic acid (2-hydroxy-1,1-dimethyl-ethyl)-amide] | 92.1 | 3.83 | – | EC50 (hCB1 [4]): 72500 nM
4 | CC(C)(C)NC(=O)c1nn(-c2cnccn2)c2c1C[C@H]1C[C@@H]21 [Compound 593, (1aR,5aR)-2-Pyrazin-2-yl-1a,2,5,5a-tetrahydro-1H-2,3-diaza-cyclopropa[a]pentalene-4-carboxylic acid tert-butylamide] | 34.6 | 7.15 | 1330 | –
5 | CC(C)(CO)NC(=O)c1nn(-c2cc(C#N)ccn2)c2c1C[C@H]1C[C@@H]21 [Compound 644, (1aR,5aR)-2-(4-Cyano-pyridin-2-yl)-1a,2,5,5a-tetrahydro-1H-2,3-diaza-cyclopropa[a]pentalene-4-carboxylic acid (2-hydroxy-1,1-dimethyl-ethyl)-amide] | 4.69 | 0.7 | 4470 | –
6 | CNC(=O)[C@@H](NC(=O)c1nn(-c2cnccn2)c2c1C[C@H]1C[C@@H]21)C(C)(C)C [Compound 667, (1aR,5aR)-2-Pyrazin-2-yl-1a,2,5,5a-tetrahydro-1H-2,3-diaza-cyclopropa[a]pentalene-4-carboxylic acid [2,2-dimethyl-1-((S)-methylcarbamoyl)-propyl]-amide] | 1.53 | 0.3 | 145 | EC50 (hCB1 [4]): 195 nM
7 | CNC(=O)[C@@H](NC(=O)c1nn(-c2c[n+]([O-])ccn2)c2c1C[C@@H]1C[C@H]21)C(C)(C)C [Compound 701, (1aS,5aS)-2-(4-Oxy-pyrazin-2-yl)-1a,2,5,5a-tetrahydro-1H-2,3-diaza-cyclopropa[a]pentalene-4-carboxylic acid ((S)-2,2-dimethyl-1-methylcarbamoyl-propyl)-amide] | – | – | – | Ki (hCB1 [7]): 105 nM
8 | CNC(=O)[C@@H](NC(=O)c1nn(-c2c[n+]([O-])ccn2)c2c1C[C@H]1C[C@@H]21)C(C)(C)C [Compound 704, (1aR,5aR)-2-(4-Oxy-pyrazin-2-yl)-1a,2,5,5a-tetrahydro-1H-2,3-diaza-cyclopropa[a]pentalene-4-carboxylic acid ((S)-2,2-dimethyl-1-methylcarbamoyl-propyl)-amide] | 0.8 | 0.2 | 228 | –
9 | COC(=O)[C@@H](NC(=O)c1nn(-c2c[n+]([O-])ccn2)c2c1C[C@H]1C[C@@H]21)C(C)(C)C [Compound 746, (S)-3,3-Dimethyl-2-{[(1aR,5aR)-2-(4-oxy-pyrazin-2-yl)-1a,2,5,5a-tetrahydro-1H-2,3-diaza-cyclopropa[a]pentalene-4-carbonyl]-amino}-butyric acid methyl ester] | 0.7 | – | 142 | –
10 | O=C(N[C@H](CO)C1CCOCC1)c1nn(-c2c[n+]([O-])ccn2)c2c1C[C@H]1C[C@@H]21 [Compound 841, (1aR,5aR)-2-(4-Oxy-pyrazin-2-yl)-1a,2,5,5a-tetrahydro-1H-2,3-diaza-cyclopropa[a]pentalene-4-carboxylic acid [(S)-2-hydroxy-1-(tetrahydro-pyran-4-yl)-ethyl]-amide] | 17.5 | 1.4 | 1140 | –
11 | O=C(NC(CO)(CF)CF)c1nn(-c2cc(Cl)ccn2)c2c1C[C@@H]1C[C@H]21 [Compound 889, (1aS,5aS)-2-(4-Chloro-pyridin-2-yl)-1a,2,5,5a-tetrahydro-1H-2,3-diaza-cyclopropa[a]pentalene-4-carboxylic acid (2-fluoro-1-fluoromethyl-1-hydroxymethyl-ethyl)-amide] | 8.6 | – | 4070 | –
12 | N#Cc1ccnc(-n2nc(C(=O)N[C@H](CO)CC(F)(F)F)c3c2[C@H]2C[C@H]2C3)c1 [Compound 891, (1aS,5aS)-2-(4-Cyano-pyridin-2-yl)-1a,2,5,5a-tetrahydro-1H-2,3-diaza-cyclopropa[a]pentalene-4-carboxylic acid ((S)-3,3,3-trifluoro-1-hydroxymethyl-propyl)-amide] | 16.2 | – | 11800 | –
13 | CC(C)(CF)NC(=O)c1nn(-c2cc(Cl)ccn2)c2c1C[C@@H]1C[C@H]21 [Compound 897, (1aS,5aS)-2-(4-Chloro-pyridin-2-yl)-1a,2,5,5a-tetrahydro-1H-2,3-diaza-cyclopropa[a]pentalene-4-carboxylic acid (2-fluoro-1,1-dimethyl-ethyl)-amide] | 3.79 | – | 951 | –
14 | CC(C)(C)[C@@H](CF)NC(=O)c1nn(-c2c[n+]([O-])ccn2)c2c1C[C@H]1C[C@@H]21 [Compound 918, (1aR,5aR)-2-(4-Oxy-pyrazin-2-yl)-1a,2,5,5a-tetrahydro-1H-2,3-diaza-cyclopropa[a]pentalene-4-carboxylic acid ((S)-1-fluoromethyl-2,2-dimethyl-propyl)-amide] | 1.01 | – | 437 | –
15 | CC(C)(NC(=O)c1nn(-c2c[n+]([O-])ccn2)c2c1C[C@@H]1C[C@H]21)C(F)(F)F [Compound 919, (1aS,5aS)-2-(4-Oxy-pyrazin-2-yl)-1a,2,5,5a-tetrahydro-1H-2,3-diaza-cyclopropa[a]pentalene-4-carboxylic acid (2,2,2-trifluoro-1,1-dimethyl-ethyl)-amide] | 2.35 | 0.2 | – | Analgesic efficacy (tactile allodynia, 50% withdrawal threshold) [8]: robust and sustained analgesic efficacy over 6 hours
16 | COc1ccc2c(c1)c(CCN1CCOCC1)c(C)n2C(=O)c1cccc(Cl)c1Cl [GW405833] | – | – | – | Hypersensitivity to mechanical stimuli ([1]; administered systemically): significantly reverses hypersensitivity to mechanical stimuli
17 | CCCCCc1cc(O)c2c(c1)OC(C)(C)[C@@H]1CCC(C)=C[C@@H]21 [THC] | – | – | – | Efficacy against acute and chronic pain [2]: effective against acute and chronic pain
18 | Cc1c(C(=O)c2cccc3ccccc23)c2cccc3c2n1[C@H](CN1CCOCC1)CO3 [WIN 55212-2] | – | – | – | Efficacy against acute and chronic pain [2]: effective against acute and chronic pain
19 | CCCCC/C=C\C/C=C\C/C=C\C/C=C\CCCC(=O)NCCO [anandamide] | – | – | – | Efficacy against acute and chronic pain [2]: effective against acute and chronic pain
